For 22 molecules, IC50 and Kd results are on record in patent US20240279221A1, “HETEROCYCLIC COMPOUNDS AND METHODS OF USE” (Schrödinger, Inc., priority 2021, published 2024).

The target of assay [1] is SOS1:KRAS (G12C) interaction (Homo sapiens (Human), UniProt Q07889). The experiment in a line: SOS1-KRas(G12C) FRET Assay. Type of assay: binding. The conditions noted are these: 0.5 nM His10-SOS1 (res. 564-1049), 2.5 nM GST-KRAS (res. 1-169, G12C); read-out: SOS-KRas(G12C) FRET IC50. A digest of the protocol: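 Compounds were pre-incubated 15 min at 25° C with SOS1 (His10, res. 564-1049; 0.5 nM final) and anti-6His-XL665, then GST-KRAS G12C (res. 1-169; 2.5 nM final) with anti-GST-Eu(K) was added for 2 h at RT. The buffer was PBS, 0.1% BSA, 5 mM MgCl2, 100 mM KF, 5 mM DTT with 0.5% DMSO. The 665/615 nm signal was normalised to DMSO and no-SOS1 controls, and IC50 and Hill coefficient were fitted by non-linear regression.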
SOS1:KRAS (G12C) interaction, sequence (Q07889 564-1049, stated change not applied): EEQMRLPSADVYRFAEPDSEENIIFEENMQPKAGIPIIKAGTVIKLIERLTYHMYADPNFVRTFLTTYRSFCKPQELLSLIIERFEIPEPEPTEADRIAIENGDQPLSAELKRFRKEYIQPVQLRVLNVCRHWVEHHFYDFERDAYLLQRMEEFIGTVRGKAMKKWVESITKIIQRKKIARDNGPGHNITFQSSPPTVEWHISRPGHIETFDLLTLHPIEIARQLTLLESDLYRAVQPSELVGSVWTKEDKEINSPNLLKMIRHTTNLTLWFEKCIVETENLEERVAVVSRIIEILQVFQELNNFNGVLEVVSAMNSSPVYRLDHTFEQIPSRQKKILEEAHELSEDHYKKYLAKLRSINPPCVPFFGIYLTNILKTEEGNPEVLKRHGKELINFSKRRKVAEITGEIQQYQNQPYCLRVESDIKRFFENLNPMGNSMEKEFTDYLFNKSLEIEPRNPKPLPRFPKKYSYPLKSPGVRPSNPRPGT

For assay [2], the target named is human SOS1 (Homo sapiens (Human), UniProt Q07889). As to the kind of experiment: Surface Plasmon Resonance (SPR) SOS1 Binding Assay. To be noted: biotinylated SOS1 (res. 564-1049), 25° C., kinetic or steady state fit, read-out: KD for hSOS1. As to the method: Binding to SOS1 was measured using a SPR assay with purified recombinant human SOS1 substrate (res. 564-1049 with N-terminal Avi tag; purified and biotinylated based on Hillig, et al., Proc Natl Acad Sci USA (2019); 116(7):2551-2560). SPR measurements were performed on a Biacore 8K SPR instrument (GE Healthcare, Sweden). Assays were performed at 25° C. using Series S SA sensor chips pre-coated with streptavidin (GE Healthcare, Cat. BR100531). Biotinylated SOS1 diluted in sample buffer (20 mM Tris HCl, 150 mM NaCl, 1 mM DTT, 0.05% TWEEN 20, 1 mM MgCl2, pH 8.0) was captured to one flow cell of the chip to about 3,000 resonance units (RU) using sample buffer supplemented with 5% DMSO as a running buffer. Serial dilutions of the assayed compounds in the running buffer at 100, 50 or 0.5 μM were injected for 60 s at a flow rate of 30 μL/min and association phases were recorded. Dissociation of the samples was monitored for 600 s. Data processing was performed using Biacore Insight Software (Biacore, GE Healthcare). Sensorgrams recorded on a SA flow cell without captured protein were subtracted from sensorgrams recorded on the SOS1 surface. Blank injections of running buffer were used for double referencing and solvent correction was applied to all sample sensorgrams to correct for buffer mismatches. KDs were estimated using a kinetic or steady state, where applicable, fitting model describing a reversible equilibrium with 1:1 binding between SOS1 and the compound.
human SOS1, sequence (Q07889 564-1049): as the sequence (Q07889 564-1049, stated change not applied) above

A word on the IC50: it is the concentration that gives 50% inhibition. By Kd is commonly meant the free concentration of one partner at which half of the binding sites on the other are occupied at equilibrium, for simple one-to-one binding. Regarding `Cc1c([C@@H](C)Nc2nn(C)c(=O)c3c(N(C)C)c(=O)n(C4CC4)cc23)cccc1C(F)(F)F` [Example 80, (R)-6-cyclopropyl-8-(dimethylamino)-2-methyl-4-((1-(2-methyl-3-(trifluoromethyl)phenyl)ethyl)amino)-2,6-dihydropyrido[3,4-d]pyridazine-1,7-dione], in assay [1], the 50% inhibitory concentration (IC50) is 302 nM. Besides, in assay [2], the dissociation constant (Kd) came to 303 nM.

Turning to `Cc1c([C@@H](C)Nc2nn(CCO)c(=O)c3cc(=O)n(C4CC4)cc23)cccc1C(F)(F)F` [Example 77, (R)-6-cyclopropyl-2-(2-hydroxyethyl)-4-((1-(2-methyl-3-(trifluoromethyl)phenyl)ethyl)amino)-2,6-dihydropyrido[3,4-d]pyridazine-1,7-dione], the half-inhibitory concentration (IC50) in assay [1] turned out to be 305 nM. Further, the Kd in assay [2] stood at 61 nM.

On to `C[C@@H](Nc1nn(C)c(=O)c2cc(=O)n([C@H]3CCOC[C@@H]3F)cc12)c1cccc(C(F)F)c1F` (single isomer, unassigned) [Example 30], for which, in assay [1], the IC50 is 20.7 nM. Further, the Kd in assay [2] is 9 nM.

On to `Cc1c([C@@H](C)Nc2nn(C)c(=O)c3c(Br)c(=O)n(C4CC4)cc23)cccc1C(F)(F)F` [Example 3, (R)-8-bromo-6-cyclopropyl-2-methyl-4-((1-(2-methyl-3-(trifluoromethyl)phenyl)ethyl)amino)-2,6-dihydropyrido[3,4-d]pyridazine-1,7-dione], for which, in assay [1], the 50% inhibitory concentration (IC50) worked out at 345 nM. The dissociation constant Kd in assay [2] is 63 nM.

On to `COc1c(=O)n([C@H]2CCOC[C@@H]2F)cc2c(N[C@H](C)c3cccc(C(F)F)c3F)nn(C)c(=O)c12` (single isomer, unassigned) [Example 60], for which the concentration for half-maximal inhibition (IC50) in assay [1] was determined as 129 nM. Further, the equilibrium dissociation constant (Kd) in assay [2] is 43 nM.

Take `COc1c(=O)n([C@@H]2CCOC[C@H]2F)cc2c(N[C@H](C)c3cccc(C(F)F)c3F)nn(C)c(=O)c12` (single isomer, unassigned) [Example 61]: the IC50 in assay [1] was found to be 25.9 nM. Moreover, in assay [2], the Kd is 10 nM.

`COc1c(=O)n(C2CCCCC2)cc2c(N[C@H](C)c3cccc(C(F)F)c3F)nn(C)c(=O)c12` [Example 49, (R)-6-cyclohexyl-4-((1-(3-(difluoromethyl)-2-fluorophenyl)ethyl)amino)-8-methoxy-2-methyl-2,6-dihydropyrido[3,4-d]pyridazine-1,7-dione]: the IC50 in assay [1] amounted to 51.3 nM. In assay [2], the Kd came out at 13 nM.

For `C[C@H](Nc1nn(C)c(=O)c2cc(=O)n([C@H]3C[C@@H](C#N)C3)cc12)c1cccc(C(F)F)c1F` [Example 75, (1S,3s)-3-(4-(((R)-1-(3-(difluoromethyl)-2-fluorophenyl)ethyl)amino)-2-methyl-1,7-dioxo-1,7-dihydropyrido[3,4-d]pyridazin-6(2H)-yl)cyclobutane-1-carbonitrile], the concentration for half-maximal inhibition (IC50) in assay [1] is 127 nM. Besides, the Kd in assay [2] was determined as 73 nM.

As for `C[C@@H](Nc1nn(C)c(=O)c2cc(=O)n(C3CCOCC3)cc12)c1cccc2c1OCC2(F)F` [Example 47, (R)-4-((1-(3,3-difluoro-2,3-dihydrobenzofuran-7-yl)ethyl)amino)-2-methyl-6-(tetrahydro-2H-pyran-4-yl)-2,6-dihydropyrido[3,4-d]pyridazine-1,7-dione], in assay [1], the concentration for half-maximal inhibition (IC50) stood at 82.4 nM. In assay [2], the dissociation constant Kd was found to be 6 nM.

Regarding `C[C@@H](Nc1nn(C)c(=O)c2cc(=O)n(C3CCOCC3)cc12)c1cccc2c1CCC2(F)F` [Example 67, (R)-4-((1-(1,1-difluoro-2,3-dihydro-1H-inden-4-yl)ethyl)amino)-2-methyl-6-(tetrahydro-2H-pyran-4-yl)pyrido[3,4-d]pyridazine-1,7(2H,6H)-dione], the IC50 in assay [1] was 24.6 nM. In assay [2], the equilibrium dissociation constant (Kd) is 10 nM.

As for `C[C@@H](Nc1nn(C)c(=O)c2cc(=O)n(C34CC(C(=O)N(C)C)(C3)C4)cc12)c1cccc(C(F)F)c1F` [Example 69, (R)-3-(4-((1-(3-(difluoromethyl)-2-fluorophenyl)ethyl)amino)-2-methyl-1,7-dioxo-1,7-dihydropyrido[3,4-d]pyridazin-6(2H)-yl)-N,N-dimethylbicyclo[1.1.1]pentane-1-carboxamide], the half-maximal inhibitory concentration (IC50) in assay [1] was 34.8 nM. In addition, the Kd in assay [2] worked out at 10 nM.

As for `C[C@@H](Nc1nn(C)c(=O)c2cc(=O)n([C@H]3CCOC(C)(C)C3)cc12)c1cccc(C(F)F)c1F` (single isomer, unassigned) [Example 83], the IC50 in assay [1] turned out to be 48.7 nM. For the same molecule, the dissociation constant Kd in assay [2] came to 11 nM.

As for `Cc1c([C@@H](C)Nc2nn(C)c(=O)c3cc(=O)n([C@H]4C[C@H](n5ccnc5)C4)cc23)cccc1C(F)(F)F` [Example 29, 6-((1r,3R)-3-(1H-imidazol-1-yl)cyclobutyl)-2-methyl-4-(((R)-1-(2-methyl-3-(trifluoromethyl)phenyl)ethyl)amino)-2,6-dihydropyrido[3,4-d]pyridazine-1,7-dione], the half-maximal inhibitory concentration (IC50) in assay [1] turned out to be 61.9 nM. In assay [2], the Kd turned out to be 42 nM.

For `C[C@@H](Nc1nn(C)c(=O)c2cc(=O)n(C3CC3)cc12)c1ccc2c(C#N)nn(C)c2c1` (single isomer, unassigned) [Example 25], the IC50 in assay [1] amounted to 3860 nM. Moreover, the Kd in assay [2] turned out to be 225 nM.

On to `C[C@@H](Nc1nn(C)c(=O)c2cc(=O)n(C3CCOCC3)cc12)c1cccc(C(F)(F)F)c1` [Example 5, (R)-2-methyl-6-(tetrahydro-2H-pyran-4-yl)-4-((1-(3-(trifluoromethyl)phenyl)ethyl)amino)-2,6-dihydropyrido[3,4-d]pyridazine-1,7-dione], for which the half-inhibitory concentration (IC50) in assay [1] amounted to 96.4 nM. Also, the Kd in assay [2] was found to be 22 nM.

`C[C@@H](Nc1nn(C)c(=O)c2cc(=O)n(C3CC3)cc12)c1cc(Br)cs1` [Example 56, (R)-4-((1-(4-bromothiophen-2-yl)ethyl)amino)-6-cyclopropyl-2-methyl-2,6-dihydropyrido[3,4-d]pyridazine-1,7-dione]: in assay [1], the concentration for half-maximal inhibition (IC50) was 1930 nM. For the same molecule, the Kd in assay [2] came out at 530 nM.

`Cc1c([C@@H](C)Nc2nn(C)c(=O)c3c(OC(C)C)c(=O)n(C4CC4)cc23)cccc1C(F)(F)F` [Example 81, (R)-6-cyclopropyl-8-isopropoxy-2-methyl-4-((1-(2-methyl-3-(trifluoromethyl)phenyl)ethyl)amino)-2,6-dihydropyrido[3,4-d]pyridazine-1,7-dione]: the IC50 in assay [1] stood at 376 nM. The Kd in assay [2] is 134 nM.

With `C[C@@H](Nc1nn(C)c(=O)c2cc(=O)n(C3CCOCC3)cc12)c1cccc2c(F)coc12` [Example 46, (R)-4-((1-(3-fluorobenzofuran-7-yl)ethyl)amino)-2-methyl-6-(tetrahydro-2H-pyran-4-yl)-2,6-dihydropyrido[3,4-d]pyridazine-1,7-dione], the half-maximal inhibitory concentration (IC50) in assay [1] is 62.4 nM. The Kd in assay [2] was 21 nM.

Take `C[C@@H](Nc1nn(C)c(=O)c2cc(=O)n(C3(C#N)CC3)cc12)c1cccc(C(F)F)c1F` [Example 66, (R)-1-(4-((1-(3-(difluoromethyl)-2-fluorophenyl)ethyl)amino)-2-methyl-1,7-dioxo-1,7-dihydropyrido[3,4-d]pyridazin-6(2H)-yl)cyclopropane-1-carbonitrile]: in assay [1], the IC50 was found to be 72.5 nM. Besides, the equilibrium dissociation constant (Kd) in assay [2] was determined as 26 nM.

For the molecule `Cc1c([C@@H](C)Nc2nn(C)c(=O)c3c(N4CC[C@H](N)C4)c(=O)n(C4CC4)cc23)cccc1C(F)(F)F` [Example 21, 8-((S)-3-aminopyrrolidin-1-yl)-6-cyclopropyl-2-methyl-4-(((R)-1-(2-methyl-3-(trifluoromethyl)phenyl)ethyl)amino)-2,6-dihydropyrido[3,4-d]pyridazine-1,7-dione], the 50% inhibitory concentration (IC50) in assay [1] is 300 nM. The dissociation constant (Kd) in assay [2] worked out at 70 nM.

On to `Cc1c([C@@H](C)Nc2nn(C)c(=O)c3cc(=O)n([C@H]4C[C@H](O)C4)cc23)cccc1C(F)(F)F` [Example 13, 6-((1r,3r)-3-hydroxycyclobutyl)-2-methyl-4-(((R)-1-(2-methyl-3-(trifluoromethyl)phenyl)ethyl)amino)-2,6-dihydropyrido[3,4-d]pyridazine-1,7-dione], for which, in assay [1], the IC50 worked out at 99.6 nM. In addition, the dissociation constant (Kd) in assay [2] came out at 25 nM.

For `C[C@@H](Nc1nn(C)c(=O)c2cc(=O)n(C3(C(F)F)CC3)cc12)c1cccc(C(F)(F)C(C)(C)O)c1F` [Example 70, (R)-4-((1-(3-(1,1-difluoro-2-hydroxy-2-methylpropyl)-2-fluorophenyl)ethyl)amino)-6-(1-(difluoromethyl)cyclopropyl)-2-methyl-2,6-dihydropyrido[3,4-d]pyridazine-1,7-dione], the IC50 in assay [1] was determined as 16.7 nM. Moreover, in assay [2], the dissociation constant Kd is 12 nM.
